The assay deals with T1, catechol-O-methyltransferase (COMT) (Homo sapiens, UniProt P21964).
T1 construct: M51A variant) was expressed in HEK 293F cells
T1 sequence (P21964 52-271 limits assumed): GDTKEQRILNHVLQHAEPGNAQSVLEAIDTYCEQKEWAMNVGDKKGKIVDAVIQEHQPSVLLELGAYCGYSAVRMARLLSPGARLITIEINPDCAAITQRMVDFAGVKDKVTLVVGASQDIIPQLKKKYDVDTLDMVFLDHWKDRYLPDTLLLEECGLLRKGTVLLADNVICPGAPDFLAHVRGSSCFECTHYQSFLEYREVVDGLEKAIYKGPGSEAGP
The assay can be described thus: COMT inhibition assay (HTRF, production of S-adenosyl homocysteine). Type of assay: biochemical. The settings on record: recombinant human COMT, HTRF SAH production; MB-COMT or S-COMT not stated for Table 1. As to the method: The ability of compounds to inhibit the activity of catechol-O-methyltransferase (COMT) was determined by a homogenous time-resolved fluorescent (HTRF) assay (Lina et al, 2012; kit from CisBio, Codolet, France). This assay measures the production of S-adenosyl homocysteine (SAH) from the methyl donor S-adenosyl methionine. Recombinant human membrane bound COMT (MB-COMT; M51A variant) was expressed in HEK 293F cells using 293Fectin (Life Technologies, Gent, Belgium) and membranes prepared. The membranes were re-suspended in buffer (20 mM Tris/HCl pH 7; 10 mM glycerol; 2 mM MgCl2; 10 mM NaCl), aliquoted and stored at −80° C. Recombinant human soluble COMT(S-COMT), Va1158 variant and a hexa-His tag on the N-terminus, was purified using Ni-NTA chromatography, the His tag removed and stored in buffer as above.
For the human MB-COMT assay, membranes (62 ng/well) were incubated with SAM (20 μM final, CisBio) and dopamine (1.5 μM final; Sigma H8502, Diegem, Belgium) in the presence or absence of varying concentrations (typically 10 concentrations ranging from 10 μM to 0.1 nM) of compound for 40 min at 37° C. in 384-well microtitre plates (10 μl per well final volume). The reaction was terminated by the addition of acylation buffer and the amount of SAH produced determined according to manufacturer's instructions. Specific inhibition as that inhibited by a high concentration of tolcapone (10 μM; synthesised at UCB) and all experiments were validated using a control curve to tolcapone.
The human S-COMT assay was performed as above except that 0.15 ng enzyme/well was incubated with SAM (20 μM final) and dopamine (100 μM final) for 15 min at 37° C. and SAH production determined.
HTRF readings were performed using a Perkin Elmer Envision and results expressed as concentration of SAH produced using a standard curve. Results were analysed using non-linear regression to the 4-parameter logistic equation and pIC50 (−log 10 concentration of drug which inhibits enzyme activity/SAH production by 50%) determined.
`COC(=O)N1CCN(S(=O)(=O)c2ccc(O)c3ncccc23)CC1` [Example 88, methyl 4-[(8-hydroxy-5-quinolyl)sulfonyl]piperazine-1-carboxylate]: the “Activity range (pIC50, COMT inhibition)” value is “+++ (a pIC50 of above about 7)”.
Consider `O=S(=O)(c1cccc(-c2cccc3ncccc23)c1)c1ccc(O)c2ncccc12` [Example 25, 5-[3-(5-quinolyl)phenyl]sulfonylquinolin-8-ol], for which the “Activity range (pIC50, COMT inhibition)” value is “+++ (a pIC50 of above about 7)”.
On to `CN1CCN(S(=O)(=O)c2ccc(O)c3ncccc23)CC1` [Example 60, 5-(4-methylpiperazin-1-yl)sulfonylquinolin-8-ol], for which the “Activity range (pIC50, COMT inhibition)” value is given as “++ (a pIC50 of from about great than 6 to 7)”.
The same measure for `CN(Cc1ccc(F)cc1)S(=O)(=O)c1ccc(O)c2ncccc12` [Example 49, N-[(4-fluorophenyl)methyl]-8-hydroxy-N-methyl-quinoline-5-sulfonamide]: “+++ (a pIC50 of above about 7)”; for `CC(=O)C1(c2ccccc2)CCN(S(=O)(=O)c2ccc(O)c3ncccc23)CC1` [Example 86, 1-[1-[(8-hydroxy-5-quinolyl)sulfonyl]-4-phenyl-4-piperidyl]ethanone]: “+++ (a pIC50 of above about 7)”.
In the case of `O=S(=O)(c1ccc(O)c2ncccc12)N1CCN(c2ccccc2)CC1` [Example 41, 5-(4-phenylpiperazin-1-yl)sulfonylquinolin-8-ol], the “Activity range (pIC50, COMT inhibition)” value is given as “++ (a pIC50 of from about great than 6 to 7)”.
The same measure for `CC(C)CC1CCCN1S(=O)(=O)c1ccc(O)c2ncccc12` (stereo not shown) [Example 82, 5-(2-isobutylpyrrolidin-1-yl)sulfonylquinolin-8-ol]: “+++ (a pIC50 of above about 7)”; for `Cc1cccc(N2CCC(S(=O)(=O)c3ccc(O)c4ncccc34)CC2)c1C` [Example 39, 5-[[1-(2,3-dimethylphenyl)-4-piperidyl]sulfonyl]quinolin-8-ol]: “+++ (a pIC50 of above about 7)”.
Take `O=S(=O)(c1ccc(O)c2ncccc12)N1CCN(c2ccc(F)cc2)CC1` [Example 96, 5-[4-(4-fluorophenyl)piperazin-1-yl]sulfonylquinolin-8-ol]: the “Activity range (pIC50, COMT inhibition)” value is recorded as “++ (a pIC50 of from about great than 6 to 7)”.
On to `Cc1ccc(N(C)S(=O)(=O)c2ccc(O)c3ncccc23)cc1` [Example 46, 8-hydroxy-N-(4-methylphenyl)-N-methylquinoline-5-sulfonamide], for which the “Activity range (pIC50, COMT inhibition)” value was “++ (a pIC50 of from about great than 6 to 7)”.
The same measure for `C[C@@H](c1ccccc1)N(C)S(=O)(=O)c1ccc(O)c2ncccc12` [Example 51, 8-hydroxy-N-methyl-N-[(1S)-1-phenylethyl]quinoline-5-sulfonamide]: “+++ (a pIC50 of above about 7)”; for `CN(Cc1ccc(C(F)(F)F)cc1)S(=O)(=O)c1ccc(O)c2ncccc12` [Example 65, N-[(4-(trifluoromethyl)phenyl)methyl]-8-hydroxy-N-methyl-quinoline-5-sulfonamide]: “+++ (a pIC50 of above about 7)”; for `CN(Cc1ccccc1F)S(=O)(=O)c1ccc(O)c2ncccc12` [Example 52, N-[(2-fluorophenyl)methyl]-8-hydroxy-N-methyl-quinoline-5-sulfonamide]: “+++ (a pIC50 of above about 7)”.
`COCCCN1CCN(S(=O)(=O)c2ccc(O)c3ncccc23)CC1` [Example 89, 5-[4-(3-methoxypropyl)piperazin-1-yl]sulfonylquinolin-8-ol]: the “Activity range (pIC50, COMT inhibition)” value is recorded as “++ (a pIC50 of from about great than 6 to 7)”.
As to `O=S(=O)(c1ccccc1C(F)(F)F)c1ccc(O)c2ncccc12` [Example 21, 5-[2-(trifluoromethyl)phenyl]sulfonylquinolin-8-ol], the “Activity range (pIC50, COMT inhibition)” value is reported as “+++ (a pIC50 of above about 7)”.
For the compound `Cc1ccc(S(=O)(=O)c2ccc(O)c3ncccc23)cc1` [Example 1, 5-tosylquinolin-8-ol], the “Activity range (pIC50, COMT inhibition)” value is “+++ (a pIC50 of above about 7)”.

The values above are taken from patent US10035799B2, “COMT inhibiting methods and compositions” (Lieber Institute for Brain Development, priority 2015, dated 2018).
